Source: PubChem BioAssay (NCI)
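Growth conditions: 96-well plates. Treatment: test compound, 48 hours, 5 concentrations. Analysis: linear interpolation between bracketing concentrations; unreached endpoints set to highest concentration. GI50 = concentration required for 50% inhibition of growth. At the TGI there is no net growth.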

What was measured:
Test in all cases: inhibition of tumour cell growth, NCI panel, 48 h
UO-31 renal = system: UO-31 renal
MALME-3M melanoma = system: MALME-3M melanoma
UACC-62 melanoma = system: UACC-62 melanoma
SNB-75 CNS = system: SNB-75 CNS
M14 melanoma = system: M14 melanoma
RPMI-8226 leukemia = system: RPMI-8226 leukemia
UACC-257 melanoma = system: UACC-257 melanoma
MDA-MB-231 breast = system: MDA-MB-231 breast
CCRF-CEM leukemia = system: CCRF-CEM leukemia
PC-3 prostate = system: PC-3 prostate
T-47D breast = system: T-47D breast
A549 NSCLC = system: A549 NSCLC
MCF7 breast = system: MCF7 breast
SNB-19 CNS = system: SNB-19 CNS
K-562 leukemia = system: K-562 leukemia
OVCAR-5 ovarian = system: OVCAR-5 ovarian
NCI/ADR-RES ovarian = system: NCI/ADR-RES ovarian
HCT-15 colon = system: HCT-15 colon
BT-549 breast = system: BT-549 breast
NCI-H522 lung = system: NCI-H522 lung
COLO 205 colon = system: COLO 205 colon
U251 CNS = system: U251 CNS
RXF 393 renal = system: RXF 393 renal
NCI-H460 lung = system: NCI-H460 lung
HOP-92 NSCLC = system: HOP-92 NSCLC
MOLT-4 leukemia = system: MOLT-4 leukemia
HS 578T breast = system: HS 578T breast
HL-60(TB) leukemia = system: HL-60(TB) leukemia
NCI-H226 lung = system: NCI-H226 lung
A498 renal = system: A498 renal
HT29 colon = system: HT29 colon
SF-268 CNS = system: SF-268 CNS
MDA-MB-435 = system: MDA-MB-435
SW-620 colon = system: SW-620 colon
IGROV1 ovarian = system: IGROV1 ovarian
TK-10 renal = system: TK-10 renal
LOX IMVI melanoma = system: LOX IMVI melanoma
SF-295 CNS = system: SF-295 CNS
EKVX NSCLC = system: EKVX NSCLC
KM12 colon = system: KM12 colon
HCC-2998 colon = system: HCC-2998 colon
SN12C renal = system: SN12C renal
DU-145 prostate = system: DU-145 prostate
NCI-H23 lung = system: NCI-H23 lung
CAKI-1 renal = system: CAKI-1 renal
SK-MEL-5 melanoma = system: SK-MEL-5 melanoma
HOP-62 NSCLC = system: HOP-62 NSCLC
ACHN renal = system: ACHN renal
HCT-116 colon = system: HCT-116 colon
SR leukemia = system: SR leukemia
SK-MEL-28 melanoma = system: SK-MEL-28 melanoma
OVCAR-3 ovarian = system: OVCAR-3 ovarian
SF-539 CNS = system: SF-539 CNS
SK-MEL-2 melanoma = system: SK-MEL-2 melanoma
OVCAR-8 ovarian = system: OVCAR-8 ovarian

COc1ccc2c(c1)N(Cc1ccc(Cl)cc1)CCC2N1CCCC1=O (stereo not given)
GI50 (UO-31 renal): 1.79 µM
TGI (UO-31 renal): 14.6 µM
GI50 (MALME-3M melanoma): 3.99 µM
TGI (MALME-3M melanoma): 27.2 µM
GI50 (UACC-62 melanoma): 3.25 µM
TGI (UACC-62 melanoma): 14.9 µM
GI50 (SNB-75 CNS): 3.22 µM
TGI (SNB-75 CNS): 35.8 µM
GI50 (M14 melanoma): 4.42 µM
TGI (M14 melanoma): 17.6 µM
GI50 (RPMI-8226 leukemia): 1.46 µM
TGI (RPMI-8226 leukemia): 12.8 µM
GI50 (UACC-257 melanoma): 3.07 µM
TGI (UACC-257 melanoma): 11.2 µM
GI50 (MDA-MB-231 breast): 4.84 µM
TGI (MDA-MB-231 breast): 98.5 µM
GI50 (CCRF-CEM leukemia): 4.74 µM
TGI (CCRF-CEM leukemia): > 100 µM
GI50 (PC-3 prostate): 3 µM
TGI (PC-3 prostate): 38.7 µM
GI50 (T-47D breast): 2.85 µM
TGI (T-47D breast): 26.2 µM
GI50 (A549 NSCLC): 4.48 µM
TGI (A549 NSCLC): 51.5 µM
GI50 (MCF7 breast): 3.5 µM
TGI (MCF7 breast): 25.5 µM
GI50 (SNB-19 CNS): 4.3 µM
TGI (SNB-19 CNS): 51.7 µM
GI50 (K-562 leukemia): 4.6 µM
TGI (K-562 leukemia): > 100 µM
GI50 (OVCAR-5 ovarian): 6.6 µM
TGI (OVCAR-5 ovarian): > 100 µM
GI50 (NCI/ADR-RES ovarian): 3.72 µM
TGI (NCI/ADR-RES ovarian): 49.6 µM
GI50 (HCT-15 colon): 4 µM
TGI (HCT-15 colon): > 100 µM
GI50 (BT-549 breast): 3.23 µM
TGI (BT-549 breast): 19.6 µM
GI50 (NCI-H522 lung): 4.33 µM
TGI (NCI-H522 lung): 35.8 µM
GI50 (COLO 205 colon): 5.33 µM
TGI (COLO 205 colon): 20 µM
GI50 (U251 CNS): 3.28 µM
TGI (U251 CNS): 59.6 µM
GI50 (RXF 393 renal): 2.77 µM
TGI (RXF 393 renal): 10.9 µM
GI50 (NCI-H460 lung): 4.22 µM
TGI (NCI-H460 lung): > 100 µM
GI50 (HOP-92 NSCLC): 2.75 µM
TGI (HOP-92 NSCLC): 20.5 µM
GI50 (MOLT-4 leukemia): 4.9 µM
TGI (MOLT-4 leukemia): 24.6 µM
GI50 (HS 578T breast): 2.76 µM
TGI (HS 578T breast): 26.5 µM
GI50 (HL-60(TB) leukemia): 5.34 µM
TGI (HL-60(TB) leukemia): 24.9 µM
GI50 (NCI-H226 lung): 2.89 µM
TGI (NCI-H226 lung): 34.5 µM
GI50 (A498 renal): 3.22 µM
TGI (A498 renal): 49.7 µM
GI50 (HT29 colon): 7.2 µM
TGI (HT29 colon): > 100 µM
GI50 (SF-268 CNS): 5.41 µM
TGI (SF-268 CNS): > 100 µM
GI50 (MDA-MB-435): 3.77 µM
TGI (MDA-MB-435): 15 µM
GI50 (SW-620 colon): 6.48 µM
TGI (SW-620 colon): > 100 µM
GI50 (IGROV1 ovarian): 3.51 µM
TGI (IGROV1 ovarian): > 100 µM
GI50 (TK-10 renal): 6.98 µM
TGI (TK-10 renal): 60.9 µM
GI50 (LOX IMVI melanoma): 3.54 µM
TGI (LOX IMVI melanoma): > 100 µM
GI50 (SF-295 CNS): 1.67 µM
TGI (SF-295 CNS): 5.08 µM
GI50 (EKVX NSCLC): 3.39 µM
TGI (EKVX NSCLC): 19.1 µM
GI50 (KM12 colon): 4.84 µM
TGI (KM12 colon): 29.3 µM
GI50 (HCC-2998 colon): 5.32 µM
TGI (HCC-2998 colon): > 100 µM
GI50 (SN12C renal): 4.68 µM
TGI (SN12C renal): 89.1 µM
GI50 (DU-145 prostate): 2.66 µM
TGI (DU-145 prostate): > 100 µM
GI50 (NCI-H23 lung): 4.37 µM
TGI (NCI-H23 lung): 57.2 µM
GI50 (CAKI-1 renal): 3.49 µM
TGI (CAKI-1 renal): 16.7 µM
GI50 (SK-MEL-5 melanoma): 2.05 µM
TGI (SK-MEL-5 melanoma): 4.61 µM
GI50 (HOP-62 NSCLC): 4.27 µM
TGI (HOP-62 NSCLC): 42.7 µM
GI50 (ACHN renal): 4.85 µM
TGI (ACHN renal): 88.2 µM
GI50 (HCT-116 colon): 5.24 µM
TGI (HCT-116 colon): > 100 µM
GI50 (SR leukemia): 6.37 µM
TGI (SR leukemia): > 100 µM
GI50 (SK-MEL-28 melanoma): 8.28 µM
TGI (SK-MEL-28 melanoma): 45.6 µM
GI50 (OVCAR-3 ovarian): 4.42 µM
TGI (OVCAR-3 ovarian): > 100 µM
GI50 (SF-539 CNS): 4.94 µM
TGI (SF-539 CNS): 69.3 µM
GI50 (SK-MEL-2 melanoma): 6 µM
TGI (SK-MEL-2 melanoma): 28.8 µM
GI50 (OVCAR-8 ovarian): 4.6 µM
TGI (OVCAR-8 ovarian): 57.3 µM
